Experimental findings from ChEMBL document CHEMBL5465560, “Selectivity Literature for EUbOPEN Chemogenomic Library” (2024) are described below.

The target in experiment [1] is Protein-tyrosine kinase 2-beta (Homo sapiens) (UniProt Q14289). Put plainly: Selectivity interaction (Kinase panel (Z-LYTE Assay)) EUB0001632a PTK2B. Particulars: at 10 µM.
In experiment [2] the target is T1, Membrane-associated tyrosine- and threonine-specific cdc2-inhibitory kinase (Homo sapiens) (UniProt Q99640).
T1 sequence (whole entry): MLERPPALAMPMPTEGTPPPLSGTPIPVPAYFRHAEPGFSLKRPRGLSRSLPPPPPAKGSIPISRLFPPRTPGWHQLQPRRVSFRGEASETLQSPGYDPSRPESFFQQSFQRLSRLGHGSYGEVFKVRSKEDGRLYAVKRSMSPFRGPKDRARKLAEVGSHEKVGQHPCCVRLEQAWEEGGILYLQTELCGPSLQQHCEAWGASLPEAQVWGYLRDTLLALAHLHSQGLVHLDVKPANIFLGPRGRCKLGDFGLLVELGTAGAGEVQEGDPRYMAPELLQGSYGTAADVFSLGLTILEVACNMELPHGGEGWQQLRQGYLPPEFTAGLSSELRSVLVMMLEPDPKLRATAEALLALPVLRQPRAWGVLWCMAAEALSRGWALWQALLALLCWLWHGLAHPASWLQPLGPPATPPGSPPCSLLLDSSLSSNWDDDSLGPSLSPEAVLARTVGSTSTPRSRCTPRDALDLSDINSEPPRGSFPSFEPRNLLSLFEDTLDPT
Kind of experiment: Selectivity interaction (KinomeScan (DiscoverX)) EUB0000666a PKMYT1. Particulars: at 10 µM.

In experiment [3] the target is T2, Ephrin type-B receptor 6 (Homo sapiens) (UniProt O15197).
T2 sequence (whole entry): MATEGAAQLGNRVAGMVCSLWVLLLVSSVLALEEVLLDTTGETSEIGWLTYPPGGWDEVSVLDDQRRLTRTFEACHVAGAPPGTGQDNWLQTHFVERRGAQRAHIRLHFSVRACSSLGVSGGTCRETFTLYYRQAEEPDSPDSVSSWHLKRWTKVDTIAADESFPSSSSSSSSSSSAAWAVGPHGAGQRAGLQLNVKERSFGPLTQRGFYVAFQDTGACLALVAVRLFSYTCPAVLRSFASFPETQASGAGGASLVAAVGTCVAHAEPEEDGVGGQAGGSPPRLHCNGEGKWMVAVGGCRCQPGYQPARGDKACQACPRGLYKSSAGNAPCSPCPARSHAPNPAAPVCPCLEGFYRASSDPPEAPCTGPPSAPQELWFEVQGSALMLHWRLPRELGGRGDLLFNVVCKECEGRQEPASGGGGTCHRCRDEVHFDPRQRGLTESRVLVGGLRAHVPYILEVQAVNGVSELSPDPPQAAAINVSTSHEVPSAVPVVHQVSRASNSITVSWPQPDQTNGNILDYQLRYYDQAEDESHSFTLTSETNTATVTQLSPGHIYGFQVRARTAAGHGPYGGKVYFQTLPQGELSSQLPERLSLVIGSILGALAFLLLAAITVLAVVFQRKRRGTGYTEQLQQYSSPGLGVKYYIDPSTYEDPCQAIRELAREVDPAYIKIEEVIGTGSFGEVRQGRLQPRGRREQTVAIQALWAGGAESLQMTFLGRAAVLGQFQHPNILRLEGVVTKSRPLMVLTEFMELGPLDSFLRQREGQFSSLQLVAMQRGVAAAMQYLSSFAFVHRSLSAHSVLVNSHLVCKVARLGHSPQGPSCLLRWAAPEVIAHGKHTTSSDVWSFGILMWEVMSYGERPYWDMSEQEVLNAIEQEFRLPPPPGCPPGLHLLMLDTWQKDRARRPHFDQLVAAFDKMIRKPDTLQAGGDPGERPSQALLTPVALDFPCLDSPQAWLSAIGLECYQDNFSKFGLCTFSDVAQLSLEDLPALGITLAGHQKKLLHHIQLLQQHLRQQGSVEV
Kind of experiment: Selectivity interaction (KinomeScan (DiscoverX)) EUB0000229b EPHB6. Particulars: at 10 µM.

Experiment [4] addresses Proto-oncogene tyrosine-protein kinase ROS (Homo sapiens) (UniProt P08922). Kind of experiment: Selectivity interaction (KinomeScan (DiscoverX)) EUB0001079a ROS1. Particulars: at 1 µM.
For experiment [5], the system named is Proto-oncogene tyrosine-protein kinase receptor Ret (Homo sapiens), P07949 [M918T]. Put plainly: (§1) Selectivity interaction (KinomeScan (DiscoverX)) EUB0001079a RET. Particulars: at 1 µM.
Chain of Proto-oncogene tyrosine-protein kinase receptor Ret (Homo sapiens), P07949 [M918T] (P07949 whole entry M918T): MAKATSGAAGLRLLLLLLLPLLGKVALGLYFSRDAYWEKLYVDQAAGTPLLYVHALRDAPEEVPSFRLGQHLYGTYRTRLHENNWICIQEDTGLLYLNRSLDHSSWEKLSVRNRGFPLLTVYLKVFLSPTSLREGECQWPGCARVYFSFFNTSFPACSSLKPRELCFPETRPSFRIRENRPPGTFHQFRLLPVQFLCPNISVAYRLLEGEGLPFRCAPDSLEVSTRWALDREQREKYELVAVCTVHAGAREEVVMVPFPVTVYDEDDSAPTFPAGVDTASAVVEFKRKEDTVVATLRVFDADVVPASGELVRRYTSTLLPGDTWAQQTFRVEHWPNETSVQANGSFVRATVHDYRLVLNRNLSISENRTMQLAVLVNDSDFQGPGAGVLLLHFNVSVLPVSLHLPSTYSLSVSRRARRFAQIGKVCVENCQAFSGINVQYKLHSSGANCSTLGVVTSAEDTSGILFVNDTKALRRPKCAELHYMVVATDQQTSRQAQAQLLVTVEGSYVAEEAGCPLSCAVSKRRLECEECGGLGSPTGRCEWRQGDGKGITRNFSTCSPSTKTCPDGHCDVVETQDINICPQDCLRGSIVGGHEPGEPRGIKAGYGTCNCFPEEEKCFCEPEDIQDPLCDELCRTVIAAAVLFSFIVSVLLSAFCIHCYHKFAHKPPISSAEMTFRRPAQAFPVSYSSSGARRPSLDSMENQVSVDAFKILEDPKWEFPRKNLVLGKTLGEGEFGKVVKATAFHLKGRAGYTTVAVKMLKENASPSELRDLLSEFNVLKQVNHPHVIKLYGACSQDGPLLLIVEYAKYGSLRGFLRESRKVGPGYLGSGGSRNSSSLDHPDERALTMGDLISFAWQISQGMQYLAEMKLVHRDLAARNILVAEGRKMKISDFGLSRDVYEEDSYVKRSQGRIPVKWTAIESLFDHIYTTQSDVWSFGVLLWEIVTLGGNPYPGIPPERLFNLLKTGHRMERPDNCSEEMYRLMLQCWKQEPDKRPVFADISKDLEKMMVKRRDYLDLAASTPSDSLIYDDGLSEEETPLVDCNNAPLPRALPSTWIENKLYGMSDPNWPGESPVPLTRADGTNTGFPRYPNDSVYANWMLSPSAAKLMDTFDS
Experiment [6] deals with Proto-oncogene tyrosine-protein kinase receptor Ret (Homo sapiens, UniProt P07949). The experiment is described as §1. As to conditions: at 1 µM.
Chain of Proto-oncogene tyrosine-protein kinase receptor Ret (P07949 whole entry): as the sequence (P07949 whole entry M918T) above, with T918M counted along it
In experiment [7] the test system is Proto-oncogene tyrosine-protein kinase receptor Ret (Homo sapiens), P07949 [V804L]. The experiment is described as §1. As to conditions: at 1 µM.
Chain of Proto-oncogene tyrosine-protein kinase receptor Ret (Homo sapiens), P07949 [V804L] (P07949 whole entry V804L): as the sequence (P07949 whole entry M918T) above, with V804L, T918M counted along it
Experiment [8] relates to Proto-oncogene tyrosine-protein kinase receptor Ret (Homo sapiens), P07949 [V804M]. Described as §1. As to conditions: at 1 µM.
Chain of Proto-oncogene tyrosine-protein kinase receptor Ret (Homo sapiens), P07949 [V804M] (P07949 whole entry V804M): as the sequence (P07949 whole entry M918T) above, with V804M, T918M counted along it
The target in experiment [9] is Receptor-interacting serine/threonine-protein kinase 2 (Homo sapiens, UniProt O43353). Kind of experiment: Selectivity interaction (Kinase panel (Invitrogen)) EUB0000639a RIPK2. As to conditions: at 200 nM.
Chain of Receptor-interacting serine/threonine-protein kinase 2 (O43353 whole entry): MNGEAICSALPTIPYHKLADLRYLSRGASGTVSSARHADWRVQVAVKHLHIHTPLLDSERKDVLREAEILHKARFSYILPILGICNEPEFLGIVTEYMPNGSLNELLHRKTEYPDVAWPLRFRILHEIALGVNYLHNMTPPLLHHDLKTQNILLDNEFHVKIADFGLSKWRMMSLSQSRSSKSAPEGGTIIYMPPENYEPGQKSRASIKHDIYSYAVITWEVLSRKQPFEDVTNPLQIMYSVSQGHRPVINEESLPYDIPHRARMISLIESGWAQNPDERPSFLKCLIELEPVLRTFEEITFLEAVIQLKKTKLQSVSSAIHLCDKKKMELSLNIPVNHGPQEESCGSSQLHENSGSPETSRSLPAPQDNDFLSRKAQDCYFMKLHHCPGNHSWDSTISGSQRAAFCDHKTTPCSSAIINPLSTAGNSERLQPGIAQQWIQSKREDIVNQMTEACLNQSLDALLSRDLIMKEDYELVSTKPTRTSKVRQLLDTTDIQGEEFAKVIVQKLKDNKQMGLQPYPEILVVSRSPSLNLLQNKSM
The target of experiment [10] is Non-receptor tyrosine-protein kinase TYK2 (Homo sapiens, UniProt P29597). Kind of experiment: Selectivity interaction (ActivX KiNativ screen (kinase selectivity in THP-1 cell lysates)) EUB0000639a TYK2. It counts as subcellular. Particulars: lysate, at 1 µM.
Chain of Non-receptor tyrosine-protein kinase TYK2 (P29597 whole entry): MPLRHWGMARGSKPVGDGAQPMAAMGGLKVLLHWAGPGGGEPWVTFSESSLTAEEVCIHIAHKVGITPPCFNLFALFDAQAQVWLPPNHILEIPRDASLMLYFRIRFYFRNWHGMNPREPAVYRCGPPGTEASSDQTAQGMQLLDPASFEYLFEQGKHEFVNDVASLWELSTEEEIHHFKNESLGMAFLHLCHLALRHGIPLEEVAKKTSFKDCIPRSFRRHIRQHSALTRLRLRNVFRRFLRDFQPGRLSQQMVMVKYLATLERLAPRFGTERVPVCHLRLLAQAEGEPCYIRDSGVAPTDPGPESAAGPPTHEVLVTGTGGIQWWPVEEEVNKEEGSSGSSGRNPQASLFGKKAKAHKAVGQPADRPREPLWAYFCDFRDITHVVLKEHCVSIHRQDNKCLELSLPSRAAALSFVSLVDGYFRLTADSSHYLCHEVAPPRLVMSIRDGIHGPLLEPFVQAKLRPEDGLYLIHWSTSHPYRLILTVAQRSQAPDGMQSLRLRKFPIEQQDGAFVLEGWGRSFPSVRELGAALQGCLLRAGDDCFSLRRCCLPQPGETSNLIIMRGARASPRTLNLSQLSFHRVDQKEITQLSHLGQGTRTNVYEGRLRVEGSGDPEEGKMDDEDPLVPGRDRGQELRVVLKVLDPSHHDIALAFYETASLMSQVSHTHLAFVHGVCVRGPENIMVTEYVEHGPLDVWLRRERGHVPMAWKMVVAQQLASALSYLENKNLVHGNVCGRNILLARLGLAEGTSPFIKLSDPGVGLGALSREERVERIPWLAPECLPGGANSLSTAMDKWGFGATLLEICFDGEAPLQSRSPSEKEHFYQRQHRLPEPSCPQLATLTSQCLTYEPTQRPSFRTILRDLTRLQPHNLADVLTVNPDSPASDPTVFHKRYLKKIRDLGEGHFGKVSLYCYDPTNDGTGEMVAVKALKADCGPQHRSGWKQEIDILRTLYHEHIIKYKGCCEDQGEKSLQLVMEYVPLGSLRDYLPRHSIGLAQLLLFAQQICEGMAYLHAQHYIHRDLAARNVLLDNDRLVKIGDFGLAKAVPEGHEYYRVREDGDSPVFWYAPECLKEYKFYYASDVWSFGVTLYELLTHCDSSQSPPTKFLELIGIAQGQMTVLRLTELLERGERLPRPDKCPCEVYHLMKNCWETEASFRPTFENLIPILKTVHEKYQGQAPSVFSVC
In experiment [11] the target is T3, Myosin light chain kinase family member 4 (Homo sapiens) (UniProt Q86YV6).
T3 sequence (whole entry): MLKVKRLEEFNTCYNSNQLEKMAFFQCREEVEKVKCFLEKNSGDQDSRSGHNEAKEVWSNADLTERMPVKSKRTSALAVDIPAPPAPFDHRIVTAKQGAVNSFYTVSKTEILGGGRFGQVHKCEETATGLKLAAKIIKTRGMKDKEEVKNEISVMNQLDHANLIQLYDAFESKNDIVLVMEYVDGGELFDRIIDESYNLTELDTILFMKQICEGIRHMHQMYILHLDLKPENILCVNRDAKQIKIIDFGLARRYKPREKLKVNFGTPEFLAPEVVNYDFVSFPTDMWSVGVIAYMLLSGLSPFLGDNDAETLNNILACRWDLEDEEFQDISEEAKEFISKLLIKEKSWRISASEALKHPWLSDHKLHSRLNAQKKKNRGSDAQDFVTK
As to conditions: at 10 µM.

Chain of Protein-tyrosine kinase 2-beta (Homo sapiens) (Q14289 whole entry, looked up): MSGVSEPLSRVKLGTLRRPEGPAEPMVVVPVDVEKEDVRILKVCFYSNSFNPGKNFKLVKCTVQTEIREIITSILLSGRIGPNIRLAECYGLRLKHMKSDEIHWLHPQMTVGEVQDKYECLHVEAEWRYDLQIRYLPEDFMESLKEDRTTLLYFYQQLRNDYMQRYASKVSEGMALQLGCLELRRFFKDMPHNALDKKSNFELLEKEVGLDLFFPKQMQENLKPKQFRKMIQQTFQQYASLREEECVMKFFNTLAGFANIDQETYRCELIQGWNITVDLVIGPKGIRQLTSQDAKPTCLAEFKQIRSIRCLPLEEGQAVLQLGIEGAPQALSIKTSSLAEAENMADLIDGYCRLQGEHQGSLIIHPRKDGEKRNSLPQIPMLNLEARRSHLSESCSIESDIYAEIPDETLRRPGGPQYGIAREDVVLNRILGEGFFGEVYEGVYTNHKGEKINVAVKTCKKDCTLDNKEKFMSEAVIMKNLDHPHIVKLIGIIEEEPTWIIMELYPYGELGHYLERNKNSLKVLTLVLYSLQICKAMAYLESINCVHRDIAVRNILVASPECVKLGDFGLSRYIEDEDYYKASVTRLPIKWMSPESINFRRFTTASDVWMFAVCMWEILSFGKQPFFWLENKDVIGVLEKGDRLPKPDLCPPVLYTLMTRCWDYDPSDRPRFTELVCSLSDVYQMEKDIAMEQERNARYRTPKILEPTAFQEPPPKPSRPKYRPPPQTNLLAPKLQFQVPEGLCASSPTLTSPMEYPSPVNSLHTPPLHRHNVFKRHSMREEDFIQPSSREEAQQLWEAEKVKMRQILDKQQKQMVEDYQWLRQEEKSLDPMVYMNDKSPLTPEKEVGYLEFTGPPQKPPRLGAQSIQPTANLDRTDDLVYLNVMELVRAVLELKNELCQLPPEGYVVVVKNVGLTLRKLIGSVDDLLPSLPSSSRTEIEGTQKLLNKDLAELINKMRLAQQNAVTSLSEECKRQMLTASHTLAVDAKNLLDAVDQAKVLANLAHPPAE

In turn, `Cn1cc(-n2cnc3c(NCc4nc5cc(Cl)c(Cl)cc5[nH]4)nc(N4CCOCC4)nc32)cn1` returned a % of control in experiment [1] of 6.24%.

Turning to `O=C(NOC[C@H](O)CO)c1ccc(F)c(F)c1Nc1ccc(I)cc1F`, the % of control in [2] stood at 80%.

`COc1cc(N(C)c2ccnc3ccc(C(F)(F)F)cc23)cc(OC)c1OC`: the % binding in [3] was found to be 81%.

As for `Nc1cnc(N2CCc3cc(S(=O)(=O)Nc4c(F)cc(Cl)cc4F)cc(N4CCCC4=O)c32)nc1` [TP-020n], the % of control was determined as 99% in experiment [4]; 100% in [5]; 89% in experiment [6]; 99% in experiment [7]; 100% in [8].

Turning to `CC[C@@H]1[C@H](F)C(=O)N[C@@H]1COc1nccc2cc(C(N)=O)c(OC)cc12` [ZIMLOVISERTIB], the % of inhibition is 16.8% in experiment [9] and -8.7% in experiment [10].

In [11], `CCN(CC)CCCCNc1ncc2cc(-c3cc(OC)cc(OC)c3)c(NC(=O)NC(C)(C)C)nc2n1` came in with a % of control of 100%.
